Values of other authors as cited in PMC9516332 (Frontiers in Oncology, 2022).
Where two headings read alike, the source gives them in different places.

Key:
[1] = molecular target: T1, panel of 255 wild-type kinases (Homo sapiens, UniProt Q9NRM7); details: kinase LATS2, 1 µmol/L single concentration, cited from earlier work
T1 sequence (Q9NRM7 1-1088): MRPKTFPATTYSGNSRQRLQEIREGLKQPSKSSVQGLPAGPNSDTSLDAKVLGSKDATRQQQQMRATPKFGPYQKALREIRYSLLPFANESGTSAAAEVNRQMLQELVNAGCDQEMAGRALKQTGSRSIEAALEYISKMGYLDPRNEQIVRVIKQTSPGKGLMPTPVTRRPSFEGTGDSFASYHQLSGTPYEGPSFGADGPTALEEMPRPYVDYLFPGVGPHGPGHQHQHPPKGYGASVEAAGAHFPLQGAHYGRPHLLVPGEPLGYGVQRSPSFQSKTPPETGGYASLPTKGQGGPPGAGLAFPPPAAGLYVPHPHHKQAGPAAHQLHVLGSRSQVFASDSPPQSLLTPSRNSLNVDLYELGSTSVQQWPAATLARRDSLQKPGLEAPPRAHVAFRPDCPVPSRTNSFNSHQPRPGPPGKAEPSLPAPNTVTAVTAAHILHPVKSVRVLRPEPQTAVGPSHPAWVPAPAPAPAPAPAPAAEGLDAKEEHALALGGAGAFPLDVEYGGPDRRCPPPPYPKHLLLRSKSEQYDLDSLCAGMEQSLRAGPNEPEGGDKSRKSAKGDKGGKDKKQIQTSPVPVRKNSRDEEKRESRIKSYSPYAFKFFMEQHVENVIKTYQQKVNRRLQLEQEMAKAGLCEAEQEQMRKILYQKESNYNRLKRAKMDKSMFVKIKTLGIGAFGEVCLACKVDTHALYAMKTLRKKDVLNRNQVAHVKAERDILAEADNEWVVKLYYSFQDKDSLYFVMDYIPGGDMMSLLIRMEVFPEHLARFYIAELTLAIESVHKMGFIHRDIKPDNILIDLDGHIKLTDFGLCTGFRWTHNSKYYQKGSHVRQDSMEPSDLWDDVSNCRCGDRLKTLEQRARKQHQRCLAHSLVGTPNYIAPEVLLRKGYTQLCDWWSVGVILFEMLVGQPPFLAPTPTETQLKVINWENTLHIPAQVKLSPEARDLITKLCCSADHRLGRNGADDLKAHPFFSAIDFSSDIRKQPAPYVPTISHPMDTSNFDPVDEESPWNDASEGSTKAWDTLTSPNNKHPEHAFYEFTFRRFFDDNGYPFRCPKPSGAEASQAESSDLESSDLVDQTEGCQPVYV

[2] = molecular target: panel of 255 wild-type kinases (Homo sapiens, UniProt P21802); details: kinase FGFR2, 1 µmol/L single concentration, cited from earlier work
[3] = molecular target: T2, panel of 255 wild-type kinases (Homo sapiens, UniProt O15146); details: MUSK, 1 µmol/L single concentration, cited from earlier work
T2 sequence (O15146 24-869): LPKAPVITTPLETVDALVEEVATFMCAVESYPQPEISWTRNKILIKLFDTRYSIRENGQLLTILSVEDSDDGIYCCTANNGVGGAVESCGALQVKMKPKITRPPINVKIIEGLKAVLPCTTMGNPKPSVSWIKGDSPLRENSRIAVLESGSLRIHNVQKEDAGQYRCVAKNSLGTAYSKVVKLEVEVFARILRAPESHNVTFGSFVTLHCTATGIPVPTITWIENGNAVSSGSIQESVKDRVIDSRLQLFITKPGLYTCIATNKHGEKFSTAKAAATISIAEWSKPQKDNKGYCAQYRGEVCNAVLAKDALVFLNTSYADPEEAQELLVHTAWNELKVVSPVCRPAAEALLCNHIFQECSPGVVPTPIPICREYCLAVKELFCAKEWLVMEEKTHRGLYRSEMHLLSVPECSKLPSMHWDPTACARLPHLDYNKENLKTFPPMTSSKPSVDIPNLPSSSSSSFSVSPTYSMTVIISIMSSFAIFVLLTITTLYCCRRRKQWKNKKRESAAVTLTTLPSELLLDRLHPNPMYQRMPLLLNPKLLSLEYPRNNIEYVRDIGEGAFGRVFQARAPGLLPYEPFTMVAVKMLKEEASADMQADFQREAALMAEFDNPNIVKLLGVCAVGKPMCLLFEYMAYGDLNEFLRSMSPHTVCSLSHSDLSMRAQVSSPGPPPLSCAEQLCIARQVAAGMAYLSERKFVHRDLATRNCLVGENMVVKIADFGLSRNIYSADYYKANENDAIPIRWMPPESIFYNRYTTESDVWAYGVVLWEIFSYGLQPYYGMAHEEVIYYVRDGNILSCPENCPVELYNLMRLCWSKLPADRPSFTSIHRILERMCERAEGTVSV

[4] = molecular target: panel of 255 wild-type kinases (Homo sapiens, UniProt P27361); details: kinase Erk1, 1 µmol/L single concentration, cited from earlier work
[5] = molecular target: panel of 255 wild-type kinases (Homo sapiens, UniProt P53355); details: kinase DAPK1, 1 µmol/L single concentration, cited from earlier work
[6] = molecular target: panel of 255 wild-type kinases (Homo sapiens, UniProt Q16816); details: kinase PHKG1, 1 µmol/L single concentration, cited from earlier work
[7] = molecular target: panel of 255 wild-type kinases (Homo sapiens, UniProt P42684); details: ARG kinase assay, 1 µmol/L single concentration, cited from earlier work
[8] = ref DOI: 10.1158/1535-7163.MCT-18-0877
[9] = ref DOI: 10.1371/journal.pone.0092146

Row | SMILES | %-inhibition at 1 µmol/L, LATS2 [1, 8] [%] | %-inhibition at 1 µmol/L, FGFR2 [2, 8] [%] | %-inhibition, MUSK [3, 8] [%] | %-inhibition at 1 µmol/L, Erk1 [4, 8] [%] | %-inhibition at 1 µmol/L, DAPK1 [5, 8] [%] | %-inhibition at 1 µmol/L, PHKG1 [6, 8] [%] | %-inhibition ARG [7, 8] [%] | %-inhibition at 1 µmol/L, LATS2 [1, 9] [%] | %-inhibition at 1 µmol/L, FGFR2 [2, 9] [%] | %-inhibition, MUSK [3, 9] [%] | %-inhibition at 1 µmol/L, Erk1 [4, 9] [%] | %-inhibition at 1 µmol/L, DAPK1 [5, 9] [%] | %-inhibition at 1 µmol/L, PHKG1 [6, 9] [%] | %-inhibition ARG [7, 9] [%]
1 | C=CC(=O)N1CCC[C@@H](n2nc(-c3ccc(Oc4ccccc4)cc3)c3c(N)ncnc32)C1 [ibrutinib] | 5.45 | 81 | 1.76 | 1.74 | -3.8 | 1.53 | 7 |  |  |  |  |  |  | 
2 | CC(=O)Nc1cccc(-n2c(=O)n(C3CC3)c(=O)c3c(Nc4ccc(I)cc4F)n(C)c(=O)c(C)c32)c1 [trametinib] |  |  |  |  |  |  |  | 1.87 | -2.64 | -0.929 | -1.14 | -6 | -2.24 | -4
3 | Cc1cc(Nc2ncc(Cl)c(Nc3ccccc3S(=O)(=O)C(C)C)n2)c(OC(C)C)cc1C1CCNCC1 [ceritinib] | 2.29 | 15 | 45 | 35 | 6 | 91 | -1.08 |  |  |  |  |  |  | 
4 | C[C@@H](Oc1cc(-c2cnn(C3CCNCC3)c2)cnc1N)c1c(Cl)ccc(F)c1Cl [crizotinib] |  |  |  |  |  |  |  | -6 | 27 | 99 | -2 | -4 | 2.74 | 80
5 | C=CC(=O)Nc1cc(Nc2nccc(-c3cn(C)c4ccccc34)n2)c(OC)cc1N(C)CCN(C)C [osimertinib] | 5 | 5.56 | 8 | -3.18 | 29 | 38 | 5.35 |  |  |  |  |  |  | 
6 | CCCS(=O)(=O)Nc1ccc(F)c(C(=O)c2c[nH]c3ncc(-c4ccc(Cl)cc4)cc23)c1F [vemurafenib] |  |  |  |  |  |  |  | -2.28 | 10 | -0.285 | 0.0533 | -0.115 | -0.913 | 7
7 | O=C(c1ccc(F)c(F)c1Nc1ccc(I)cc1F)N1CC(O)([C@@H]2CCCCN2)C1 [cobimetinib] | 1.46 | -2.8 | 2.78 | -0.916 | -4 | 3 | -1.54 |  |  |  |  |  |  | 
8 | CC(C)(C)c1nc(-c2cccc(NS(=O)(=O)c3c(F)cccc3F)c2F)c(-c2ccnc(N)n2)s1 [dabrafenib] |  |  |  |  |  |  |  | 0.57 | 4 | 16 | -1.62 | -0.54 | -0.59 | 54
9 | CO[C@@H]1[C@H](N(C)C(=O)c2ccccc2)C[C@H]2O[C@]1(C)n1c3ccccc3c3c4c(c5c6ccccc6n2c5c31)C(=O)NC4 [midostaurin] | 86 | 97 | 94 | -0.653 | 57 | 97 | 25 |  |  |  |  |  |  | 
10 | CC#CC(=O)N1CCC[C@H]1c1nc(-c2ccc(C(=O)Nc3ccccn3)cc2)c2c(N)nccn12 [acalabrutinib] | -7.45 | -6 | -0.581 | -2.38 | -17 | -4 | 3.53 |  |  |  |  |  |  | 
11 | CCc1cc2c(cc1N1CCC(N3CCOCC3)CC1)C(C)(C)c1[nH]c3cc(C#N)ccc3c1C2=O [alectinib] | 1.69 | 2 | 6 | 1.41 | 58 | 78 | 1 |  |  |  |  |  |  | 
